Here are results for 24 molecules from paper PMC12969314 (European journal of medicinal chemistry, 2022).

Series [1] can be described thus: Human liver microsomal intrinsic clearance. The series is classed as in vitro ADME. To be noted: for CLint scaled / Predicted hepatic clearance hCLHEP: human; for CLint scaled: liver microsomes, Intrinsic clearance hCLINT; for Predicted hepatic clearance hCLHEP: well-stirred organ CL model, binding terms excluded.
Series [2] can be described thus: Mouse liver microsomal intrinsic clearance. The series is classed as in vitro ADME. To be noted: for CLint scaled: liver microsomes; for Predicted hepatic clearance mCLHEP: well-stirred organ CL model, binding terms excluded.
Series [3] has as its target T1, D4 receptor (Homo sapiens, UniProt P21917).
T1 sequence (P21917 1-419): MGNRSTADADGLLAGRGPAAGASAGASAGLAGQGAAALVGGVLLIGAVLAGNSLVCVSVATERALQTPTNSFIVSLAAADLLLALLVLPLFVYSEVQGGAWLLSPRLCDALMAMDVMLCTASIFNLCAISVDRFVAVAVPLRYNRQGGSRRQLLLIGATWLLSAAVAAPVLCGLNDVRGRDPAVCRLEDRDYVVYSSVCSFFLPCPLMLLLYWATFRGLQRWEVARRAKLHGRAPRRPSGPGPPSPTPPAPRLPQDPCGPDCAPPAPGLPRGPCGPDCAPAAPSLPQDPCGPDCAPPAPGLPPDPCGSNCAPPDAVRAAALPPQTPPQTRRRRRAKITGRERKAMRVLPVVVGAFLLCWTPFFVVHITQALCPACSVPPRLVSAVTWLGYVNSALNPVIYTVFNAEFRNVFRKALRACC
The class given is binding. To be noted: for selectivity against the dopamine receptor family: σ1 over D1-5.

The target of series [4] is DAT (Homo sapiens, UniProt Q01959). In words: PDSP panel binding, DAT. To be noted: for selectivity versus DAT: σ1 over DAT.
Sequence of DAT (Q01959 whole entry, species assumed): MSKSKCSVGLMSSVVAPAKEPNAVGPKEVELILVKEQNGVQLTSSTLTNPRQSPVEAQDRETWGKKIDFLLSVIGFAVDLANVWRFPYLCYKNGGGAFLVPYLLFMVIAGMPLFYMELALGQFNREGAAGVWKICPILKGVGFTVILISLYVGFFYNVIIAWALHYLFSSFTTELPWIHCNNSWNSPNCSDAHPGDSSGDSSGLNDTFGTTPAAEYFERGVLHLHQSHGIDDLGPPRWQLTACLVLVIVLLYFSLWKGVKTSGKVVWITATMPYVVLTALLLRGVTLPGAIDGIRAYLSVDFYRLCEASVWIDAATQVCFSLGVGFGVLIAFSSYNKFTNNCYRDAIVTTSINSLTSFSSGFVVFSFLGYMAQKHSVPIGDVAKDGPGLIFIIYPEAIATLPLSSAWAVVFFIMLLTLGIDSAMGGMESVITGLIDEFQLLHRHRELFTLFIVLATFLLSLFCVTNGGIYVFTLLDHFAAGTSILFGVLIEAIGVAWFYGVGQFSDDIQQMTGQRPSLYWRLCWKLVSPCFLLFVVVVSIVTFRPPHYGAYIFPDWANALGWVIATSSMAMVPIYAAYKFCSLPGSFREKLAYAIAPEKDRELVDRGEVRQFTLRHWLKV
Series [5] deals with σ2 receptor (Homo sapiens, UniProt Q5BJF2). In words: σ2 receptor radioligand binding, [3H]DTG, HEK293 membranes. To be noted: ratio, σ1 over σ2.
Sequence of σ2 receptor (Q5BJF2 whole entry, species assumed): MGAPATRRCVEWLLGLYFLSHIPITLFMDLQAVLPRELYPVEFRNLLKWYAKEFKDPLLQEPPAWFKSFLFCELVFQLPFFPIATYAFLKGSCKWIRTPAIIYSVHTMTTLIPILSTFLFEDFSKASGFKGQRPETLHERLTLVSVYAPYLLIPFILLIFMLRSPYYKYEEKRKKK
Series [6] is described as follows: Mouse plasma protein binding, equilibrium dialysis. The class given is in vitro ADME. Background: Equilibrium dialysis compares concentrations on both sides of a semipermeable membrane.

In series [1] (human liver microsomes), `Cn1cnc2cc(CN3CCC(OCc4ccc(Cl)c(F)c4)CC3)ccc21` [Compound 11b, 5-((4-((4-chloro-3-fluorobenzyl)oxy)piperidin-1-yl)methyl)-1-methyl-1H-benzo[d]imidazole] registered an intrinsic clearance (CLint scaled) of under 20 mL/min/kg. Moreover, the “Predicted hepatic clearance hCLHEP” value in series [1] was under 10 mL/min/kg. In series [2], the intrinsic metabolic clearance (CLint scaled) is under 20 mL/min/kg and the “Predicted hepatic clearance mCLHEP” value is recorded as under 16 mL/min/kg.

For `COc1ccc(CN2CCC[C@H](OCc3ccc(F)c(C)c3)C2)cc1F` [Compound 19a, (S)-3-((4-fluoro-3-methylbenzyl)oxy)-1-(3-fluoro-4-methoxybenzyl)piperidine], the CLint scaled in series [1] (human liver microsomes) worked out at 964 mL/min/kg. For the same molecule, the “Predicted hepatic clearance hCLHEP” value in series [1] was 19.7 mL/min/kg. Moreover, in series [2], the CLint scaled is over 2400 mL/min/kg and the “Predicted hepatic clearance mCLHEP” value is reported as 86.8 mL/min/kg.

On to `COc1ccc(CN2CCC[C@H](OCc3ccc(C)cc3)C2)cc1F` [Compound 19e, (S)-1-(3-fluoro-4-methoxybenzyl)-3-((4-methylbenzyl)oxy)piperidine], for which the values for the CLint scaled in series [1] (human liver microsomes) and in series [2] were 1130 mL/min/kg and 1190 mL/min/kg, respectively. Moreover, the “Predicted hepatic clearance hCLHEP” value in series [1] is 19.7 mL/min/kg. The “Predicted hepatic clearance mCLHEP” value in series [2] is 83.7 mL/min/kg.

In series [1] (human liver microsomes), `Fc1ccc(COC2CCN(Cc3cc4ccc(Cl)cc4[nH]3)CC2)cc1F` [Compound 14a, 6-chloro-2-((4-((3,4-difluorobenzyl)oxy)piperidin-1-yl)methyl)-1H-indole] had an intrinsic metabolic clearance (CLint scaled) of under 30 mL/min/kg. Also, the “Predicted hepatic clearance hCLHEP” value in series [1] is reported as 10.8 mL/min/kg. Further, the “Predicted hepatic clearance mCLHEP” value in series [2] is listed as 43.3 mL/min/kg.

Turning to `Cc1ccc(CO[C@H]2CCCN(Cc3ccc(C#N)cc3)C2)cc1` [Compound 19f, (S)-4-((3-((4-methylbenzyl)oxy)piperidin-1-yl)methyl) benzonitrile], the intrinsic clearance (CLint scaled) in series [1] (human liver microsomes) worked out at 842 mL/min/kg. Besides, the “Predicted hepatic clearance hCLHEP” value in series [1] is listed as 19.6 mL/min/kg. In addition, in series [3], the “selectivity against the dopamine receptor family” value is recorded as over 74 fold. Further, in series [2], the intrinsic clearance (CLint scaled) was determined as 485 mL/min/kg and the “Predicted hepatic clearance mCLHEP” value is listed as 76.0 mL/min/kg. For the same molecule, the “selectivity versus DAT” value in series [4] is 300.

`Cn1ncc2cc(CN3CCC(OCc4ccc(F)c(F)c4)CC3)ccc21` [Compound 13a, 5-((4-((3,4-difluorobenzyl)oxy)piperidin-1-yl)methyl)-1-methyl-1H-indazole]: in series [1], the “Predicted hepatic clearance hCLHEP” value is 12.5 mL/min/kg. The “Predicted hepatic clearance mCLHEP” value in series [2] is recorded as 48.2 mL/min/kg.

`Cc1c(Cl)cccc1NC(=O)CN1CCC(OCc2ccc(F)c(F)c2)CC1` [Compound 18a, N-(3-chloro-2-methylphenyl)-2-(4-((3,4-difluorobenzyl)oxy)piperidin-1-yl)acetamide]: the “Predicted hepatic clearance hCLHEP” value in series [1] is given as 17.6 mL/min/kg. Besides, the “Predicted hepatic clearance mCLHEP” value in series [2] is reported as 68.6 mL/min/kg.

Take `Cc1ccccc1CO[C@H]1CCCN(Cc2ccc3c(cnn3C)c2)C1` [Compound 13g, (S)-1-methyl-5-((3-((2-methylbenzyl)oxy)piperidin-1-yl)methyl)-1H-indazole]: the intrinsic clearance (CLint scaled) in series [1] (human liver microsomes) was determined as 334 mL/min/kg. For the same molecule, the “Predicted hepatic clearance hCLHEP” value in series [1] was 19.0 mL/min/kg. In series [2], the CLint scaled turned out to be 545 mL/min/kg and the “Predicted hepatic clearance mCLHEP” value is 77.3 mL/min/kg.

As for `Fc1cc(COC2CCN(Cc3cn4ccccc4n3)CC2)ccc1Cl` [Compound 17b, 2-((4-((4-chloro-3-fluorobenzyl)oxy)piperidin-1-yl)methyl)imidazo[1,2-a]pyridine], the “Predicted hepatic clearance hCLHEP” value in series [1] is listed as 13.8 mL/min/kg. Also, in series [2], the “Predicted hepatic clearance mCLHEP” value is on record as 46.7 mL/min/kg.

Consider `Fc1ccc(COC2CCN(Cc3cn4ccccc4n3)CC2)cc1F` [Compound 17a, 2-((4-((3,4-difluorobenzyl)oxy)piperidin-1-yl)methyl)imidazo[1,2-a]pyridine], for which the “Predicted hepatic clearance hCLHEP” value in series [1] is under 10 mL/min/kg. For the same molecule, in series [2], the “Predicted hepatic clearance mCLHEP” value is recorded as 57.4 mL/min/kg.

In turn, `Fc1ccc(CN2CCCC3(CCN(Cc4cc5ccc(Cl)cc5[nH]4)C3)C2)cc1F` (stereo not drawn) [Compound 25c, 2-((6-chloro-1H-indol-2-yl)methyl)-7-(3,4-difluorobenzyl)-2,7-diazaspiro[4.5]decane] returned a Ki in series [3] of over 10 µM.

In the case of `Cc1c(Cl)cccc1NC(=O)CN1CCC2(CCCN2Cc2ccc(F)c(F)c2)CC1` [Compound 24a, N-(3-chloro-2-methylphenyl)-2-(1-(3,4-difluorobenzyl)-1,8-diazaspiro[4.5]decan-8-yl)acetamide], the Ki in series [3] is over 10 µM.

Turning to `FC(F)(F)c1cccc(COC2CCN(Cc3cn4ccccc4n3)CC2)c1` [Compound 17c, 2-((4-((3-(trifluoromethyl)benzyl)oxy)piperidin-1-yl)methyl)imidazo[1,2-a]pyridine], in series [1] (human liver microsomes), the intrinsic metabolic clearance (CLint scaled) stood at 69.3 mL/min/kg. In addition, in series [1], the “Predicted hepatic clearance hCLHEP” value is reported as 15.6 mL/min/kg. Further, in series [2], the intrinsic metabolic clearance (CLint scaled) was 150 mL/min/kg and the “Predicted hepatic clearance mCLHEP” value is recorded as 56.3 mL/min/kg.

Take `Cn1ncc2cc(CN3CCC(OCc4ccc(Cl)c(F)c4)CC3)ccc21` [Compound 13b, 5-((4-((4-chloro-3-fluorobenzyl)oxy)piperidin-1-yl)methyl)-1-methyl-1H-indazole]: the “Predicted hepatic clearance hCLHEP” value in series [1] is reported as 13.7 mL/min/kg. The “Predicted hepatic clearance mCLHEP” value in series [2] is given as 43.8 mL/min/kg.

For `c1cncc(COC2CCN(Cc3cn4ccccc4n3)CC2)c1` [Compound 17e, 2-((4-(pyridin-3-ylmethoxy)piperidin-1-yl)methyl)imidazo [1,2-a]pyridine], the affinity in series [3] corresponds to a Ki of 2.29 µM.

As to `Fc1cc(COC2CCN(Cc3ccc4[nH]ncc4c3)CC2)ccc1Cl` [Compound 12b, 5-((4-((4-chloro-3-fluorobenzyl)oxy)piperidin-1-yl)methyl)-1H-indazole], in series [1] (human liver microsomes), the “Intrinsic clearance hCLINT” value is on record as 26.8 mL/min/kg and the CLint scaled was under 30 mL/min/kg. Moreover, in series [1], the “Predicted hepatic clearance hCLHEP” value was 11.5 mL/min/kg. Besides, in series [2], the intrinsic clearance (CLint scaled) is 72 mL/min/kg and the “Predicted hepatic clearance mCLHEP” value is 40.0 mL/min/kg.

In series [1] (human liver microsomes), `Fc1ccc(OC[C@@H]2CN(Cc3cn4ccccc4n3)CCO2)cc1F` [Compound 17k, (S)-2-((3,4-difluorophenoxy)methyl)-4-(imidazo[1,2-a]pyridin-2-ylmethyl)morpholine] registered an intrinsic metabolic clearance (CLint scaled) of 42.1 mL/min/kg. Moreover, the “Predicted hepatic clearance hCLHEP” value in series [1] was 13.6 mL/min/kg. In addition, in series [2], the intrinsic clearance (CLint scaled) is 321 mL/min/kg and the “Predicted hepatic clearance mCLHEP” value is given as 70.3 mL/min/kg.

Regarding `Cc1nc(CN2CCC(OCc3ccc(Cl)c(F)c3)CC2)c2ccccn12` [Compound 16b, 1-((4-((4-chloro-3-fluorobenzyl)oxy)piperidin-1-yl)methyl)-3-methylimidazo[1,5-a]pyridine], the CLint scaled in series [1] (human liver microsomes) turned out to be 130 mL/min/kg. In addition, the “Predicted hepatic clearance hCLHEP” value in series [1] is 17.4 mL/min/kg. Moreover, in series [2], the intrinsic clearance (CLint scaled) came to 199 mL/min/kg and the “Predicted hepatic clearance mCLHEP” value was 62.0 mL/min/kg.

As for `Cc1cc(NC(=O)CN2CCC(OCc3ccc(F)c(F)c3)CC2)ccc1F` [Compound 18d, 2-(4-((3,4-difluorobenzyl)oxy)piperidin-1-yl)-N-(4-fluoro-3-methylphenyl)acetamide], in series [1], the “Predicted hepatic clearance hCLHEP” value is listed as 14.3 mL/min/kg. Moreover, the “Predicted hepatic clearance mCLHEP” value in series [2] is reported as 69.6 mL/min/kg. Further, in series [5], the “selectivity σ1:σ2” value is reported as ~ 1.4. For the same molecule, the “Stability in mouse plasma (mPPB column)” value in series [6] is reported as “c”.

`Cc1cc(NC(=O)CN2CCC3(CCCN3Cc3ccc(F)c(F)c3)C2)ccc1F` (stereo not drawn) [Compound 24e, 2-(1-(3,4-difluorobenzyl)-1,7-diazaspiro[4.4]nonan-7-yl)-N-(4-fluoro-3-methylphenyl)acetamide]: the Ki in series [3] was over 10 µM.

Take `c1ccc(OC[C@@H]2CN(Cc3ccc4[nH]ccc4c3)CCO2)cc1` [Compound 4]: in series [3] (D4 over σ1), the “selectivity for D4 versus σ1” value is ~ 13 fold.

Take `Cn1ncc2cc(CN3CCC(OCc4cccc(C(F)(F)F)c4)CC3)ccc21` [Compound 13c, 1-Methyl-5-((4-((3-(trifluoromethyl)benzyl)oxy)piperidin-1-yl)methyl)-1H-indazole]: the “Predicted hepatic clearance hCLHEP” value in series [1] is 15.3 mL/min/kg. The “Predicted hepatic clearance mCLHEP” value in series [2] is on record as 43.8 mL/min/kg.

Regarding `Cc1ccc(CO[C@H]2CCCN(Cc3cccc(F)c3)C2)cc1` [Compound 19g, (S)-1-(3-fluorobenzyl)-3-((4-methylbenzyl)oxy)piperidine], in series [1] (human liver microsomes), the intrinsic clearance (CLint scaled) was 1400 mL/min/kg. In addition, the “Predicted hepatic clearance hCLHEP” value in series [1] is 19.8 mL/min/kg. Besides, in series [3], the inhibition constant (Ki) is over 10 µM and the “selectivity against the dopamine receptor family” value is reported as over 74 fold. Further, in series [2], the CLint scaled is over 2400 mL/min/kg and the “Predicted hepatic clearance mCLHEP” value is given as 86.8 mL/min/kg. Further, in series [4], the affinity corresponds to a Ki of 8.81 µM and the “selectivity versus DAT” value is reported as 473. Also, in series [5], the “selectivity σ1:σ2” value is on record as 31.

As for `Cc1cc(NC(=O)CN2CCC3(CCCN(Cc4ccc(F)c(F)c4)C3)C2)ccc1F` (stereo not drawn) [Compound 24f, 2-(7-(3,4-difluorobenzyl)-2,7-diazaspiro[4.5]decan-2-yl)-N-(4-fluoro-3-methylphenyl)acetamide], the CLint scaled in series [1] (human liver microsomes) turned out to be 602 mL/min/kg; in series [2], 855 mL/min/kg. The “Predicted hepatic clearance hCLHEP” value in series [1] is reported as 19.5 mL/min/kg. In series [3], the inhibition constant Ki was over 10 µM. Also, the “Predicted hepatic clearance mCLHEP” value in series [2] is recorded as 81.5 mL/min/kg. Moreover, the “Stability in mouse plasma (mPPB column)” value in series [6] is “c”.

As usually defined, the CLint scaled is the rate of metabolic loss divided by the concentration. A higher CLint scaled goes with rapid turnover. Broadly, the Ki is the dissociation constant of the complex between target and ligand, obtained from inhibition or displacement.
